Biological target: Macrophage colony-stimulating factor 1 receptor (Homo sapiens, UniProt P07333)
Experiment: Fluorescence Polarization Competition Assay
Details: pH 7.5
Text: An autophosphorylation, fluroescence polarization competition immunoassay was used to determine the potency for c-fms inhibition.

Sequence of Macrophage colony-stimulating factor 1 receptor (P07333 whole entry): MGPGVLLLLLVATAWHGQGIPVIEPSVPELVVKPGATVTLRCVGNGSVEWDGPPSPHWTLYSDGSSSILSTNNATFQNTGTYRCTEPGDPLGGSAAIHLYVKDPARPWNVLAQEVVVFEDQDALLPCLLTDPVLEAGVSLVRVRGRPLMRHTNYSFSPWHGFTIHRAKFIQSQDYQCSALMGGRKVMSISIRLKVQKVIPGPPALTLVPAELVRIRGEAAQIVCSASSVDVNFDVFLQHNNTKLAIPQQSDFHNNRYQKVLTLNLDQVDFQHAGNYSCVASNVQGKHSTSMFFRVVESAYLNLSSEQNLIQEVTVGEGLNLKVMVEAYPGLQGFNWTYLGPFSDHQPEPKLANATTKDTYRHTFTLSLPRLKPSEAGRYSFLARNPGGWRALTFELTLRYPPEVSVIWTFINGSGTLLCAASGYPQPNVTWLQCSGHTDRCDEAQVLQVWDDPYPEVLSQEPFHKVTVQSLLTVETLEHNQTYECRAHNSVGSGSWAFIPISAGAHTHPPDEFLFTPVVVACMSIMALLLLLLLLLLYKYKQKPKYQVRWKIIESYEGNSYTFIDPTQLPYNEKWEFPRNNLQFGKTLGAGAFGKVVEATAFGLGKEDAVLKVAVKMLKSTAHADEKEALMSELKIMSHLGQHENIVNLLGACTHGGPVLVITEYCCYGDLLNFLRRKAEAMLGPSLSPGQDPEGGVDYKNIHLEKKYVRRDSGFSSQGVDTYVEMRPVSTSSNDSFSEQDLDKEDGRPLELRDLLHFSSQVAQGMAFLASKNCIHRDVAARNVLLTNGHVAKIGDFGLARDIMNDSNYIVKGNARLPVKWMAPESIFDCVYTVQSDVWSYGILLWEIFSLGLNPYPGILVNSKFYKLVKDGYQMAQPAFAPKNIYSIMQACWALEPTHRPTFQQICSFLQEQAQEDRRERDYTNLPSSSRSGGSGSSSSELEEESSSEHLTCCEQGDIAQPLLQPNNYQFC

IC50: 0.43 nM
SMILES: CC1(C)CC=C(c2cc([C@]3(O)C[C@@]4(CO)C=C[C@@](CO)(C3)O4)ccc2NC(=O)c2ncc(C#N)[nH]2)CC1 [US8497376, 2]
